The values that follow come from US9944991B2, “Compositions and methods for diagnosis, prognosis and treatment of hematological malignancies” (Dana-Farber Cancer Institute, Inc., priority 2012, dated 2018).

One data set relates to NF-κB p65. The experiment in a line: NF-κB p65 DNA-binding activity (Active Motif TransAM) in nuclear extracts. Format: cell-based, human. The conditions noted are these: BCWM.1 and MWCL.1; everolimus 1 nM or bortezomib 5 nM, 4 hours; TNF-α 10 ng/mL. The source says: NF-κB activity was investigated using the Active Motif TransAM kits, a DNA-binding enzyme-linked immunosorbent assay (ELISA)-based assay (Active Motif North America, Carlsbad, Calif.).

The test system of data set [1] is miR-155. The data set can be described thus: miR-155 target de-repression in xenograft mice (qRT-PCR of bone marrow CD19+ cells, immunostaining). The format is in vivo, SCID mice. As for the experimental part:
(§1) Immediately after tail vein injection of mCherry-Luc+-BCWM1 cells (3×10^6/mouse) in SCID mice, the mice (6 mice/group) were treated with a single intravenous tail vein injection of 25 mg/kg with either antimiR-155 or LNA scramble control, followed by weekly maintenance doses of 5 mg/kg antimiR-155 or LNA scramble control until the mice were sacrificed. Mice were injected with 75 mg/kg luciferin (Caliper Life Sciences, Hopkinton, Mass.), followed by whole-body real-time bioluminescence imaging (Xenogen IVIS imaging system, Caliper Life Sciences, Hopkinton, Mass.) performed at Day 0, Day 14, and Day 19. Mice were sacrificed by inhalation of CO2. RNA was extracted from CD19+ cells isolated from one mouse femur by using CD19+ microbead selection. The other femur, liver, and spleen were fixed in formaldehyde.
Moreover, immunostaining confirmed de-repression of the MAFB and CEBPβ targets at the protein level in the bone marrow and spleen upon treatment with the antimiR-155 (FIG. 7D).

Data set [2] has as its system miR-155. The experiment in a line: Gene expression profiling and qRT-PCR of miR-155 target mRNAs in BCWM1 cells. Format: cell-based, human. The conditions noted are these: vs scramble control. As for the experimental part:
Total RNA from BCWM1 cells treated with antimiR-155 or LNA scramble control oligonucleotide, respectively, for 48 hours, were isolated using RNeasy kit (Qiagen) as described by the manufacturer, and hybridized on an Affymetrix U133A 2.0 array chip (Affymetrix, Santa Clara, Calif.). GEP data were analyzed using dChip software (biosunl.harvard.edu/complab/dchip/). Candidate target mRNAs for miR-155 were identified by using the algorithms TargetScan (genes.mit.edu/targetscan/), PicTar (pictar.bio.nyu.edu/) and RNAhybrid (bibiserv.techfak.uni-bielefeld.de/rnahybrid/).
(§2) Total RNA of cells was isolated with the RNeasy kit (Qiagen). cDNA was synthesized using the SuperScript cDNA synthesis kit (Invitrogen) and qRT-PCR reactions were performed using SYBR master mix (SA Bioscience) with designated primers relative to 18S expression by StepOnePlus™ Real-Time PCR System (Applied Biosystem) in triplicates. TaqMan® microRNA Assays kits (Applied Biosystem) were used for quantifying hsa-miR-155 levels relative to RNU6B expression.
To identify new direct miR-155 targets in B cell lymphomas, gene expression profiling (GEP) was performed on BCWM.1 cells after treatment with antimiR-155 or scramble control for 24 or 48 hours. […]

Data set [3] deals with MEC1 cells. The experiment in a line: MTT cell survival / cytotoxicity assay. Format: cell-based, human. As to conditions: 20 μM, 48 hours, vs scramble control. The method, then:
(§3) To assess the uptake of antimiR-155 into BCWM1 or MEC1 cells, a 5′ FAM-labeled antimiR-155 was used and the antimiR was added directly to the cell suspension without any transfection reagent. The uptake of FAM-labeled antimiR-155 into BCWM1 cells was higher than 90% as judged by flow cytometry (data not shown), which indicates efficient delivery of the 8-mer antimiR into tumor cells. To further examine the functional effect of antimiR-155 on BCWM1 or MEC1, cell survival and cell proliferation was measured by MTT and [H]^3 thymidine uptake assays, respectively. […] Thus, miR-155 inhibition regulates cell proliferation, but not cell apoptosis.

Data set [4] has as its system BCWM1 cells. The experiment in a line: MTT cell survival / cytotoxicity assay. Format: cell-based, human. As to conditions: 20 μM, 48 hours, vs scramble control. The method, then: as §3
The subject of data set [5] is primary WM bone marrow stromal cells. The data set can be described thus: Cytotoxicity on stromal cells in co-culture. As to conditions: 20 μM, 48 hours. The format is cell-based, human. The method, then: (§4) To examine the effect of antimiR-155 on tumor progression in the context of the microenvironment, the miR-155 levels were first quantified in bone marrow stromal cells (mesenchymal stem cells) from WM patients in comparison to normal healthy donors. […] Consequently, 20 μM antimiR-155 or scramble control was added to a co-culture of BCWM1 and primary WM bone marrow stromal cells or MEC1 cells and primary WM bone marrow stromal cells, and then assessed for cell proliferation by MTT and [H]^3 thymidine uptake assays, respectively, after 48-hours. […] No effect on cell cytotoxicity on stromal cells was observed.

The subject of data set [6] is miR-155. The experiment in a line: qRT-PCR of miR-155 target genes in primary CLL cells. The format is cell-based, human. As to conditions: 20 μM, 48 hours, vs scramble control. As for the experimental part:
as §2
(§5) The mRNA levels of the six miR-155 target genes, SMAD5, SOCS1, CEBPβ, MAFB, SHANK2 and SH3PXD2A, […] were next determined by qRT-PCR from primary WM CD19^+ cells, and primary CLL cells, normal donor blood CD19^+ cells, BCWM1 and MEC1 cells.

Data set [7] relates to MEC1 cells. The data set can be described thus: [H]3 thymidine uptake cell proliferation assay. The format is cell-based, human. The conditions noted are these: 20 μM, 48 hours, vs scramble control. The method, then:
as §3

Data set [8] concerns BCWM1 cells. The experiment in a line: [H]3 thymidine uptake cell proliferation assay. As to conditions: 20 μM, 48 hours, vs scramble control. Format: cell-based, human. As for the experimental part:
as §3

Data set [9] concerns MEC1 cells. The data set can be described thus: Co-culture with stromal cells from wild-type or miR-155−/− mice, [H]3 thymidine uptake. The format is cell-based, human. As to conditions: 20 μM, 48 hours, vs scramble control. As for the experimental part: (§6) To further clarify whether antimiR-155 can affect both tumor cells and stromal cells, BCWM1 or MEC1 cells were treated with antimiR-155 or scramble control, followed by co-culturing of the treated cells with bone marrow stromal cells from wild-type mice in comparison with stromal cells from miR-155^−/− mice. Cell survival and cell proliferation were assessed by MTT assay and [H]^3 thymidine uptake assays, respectively, after 48-hour of co-culture.

Data set [10] concerns BCWM1 cells. The data set is described as above. The format is cell-based, human. The conditions noted are these: 20 μM, 48 hours, vs scramble control. The method, then: as §6
Data set [11] deals with MEC1 cells. The data set can be described thus: Co-culture with primary WM bone marrow stromal cells, proliferation. As to conditions: 20 μM, 48 hours. Format: cell-based, human. The method, then: as §4
Data set [12] deals with BCWM1 cells. The description is as above. Format: cell-based, human. As to conditions: 20 μM, 48 hours. The method, then:
as §4

For data set [13], the system named is miR-155. The experiment in a line: qRT-PCR of miR-155 target genes in primary WM CD19+ cells. The format is cell-based, human. The conditions noted are these: 20 μM, 48 hours, vs scramble control. As for the experimental part:
as §2, §5

The subject of a further data set is mCherry-Luc+-BCWM1 cells. The experiment in a line: Xenograft mouse model of WM, bioluminescent imaging of tumor burden. The format is in vivo, SCID mice. The method, then:
as §1
To assess the anti-tumor activity of antimiR-155 in vivo, a xenograft mouse model of WM was used. Six SCID mice per group were engrafted with 3×10^6 mCherry-Luc^+-BCWM1 cells, after which mice were injected with a loading dose of 25 mg/kg antimiR-155 or scramble control, which was followed by weekly maintenance doses of 5 mg/kg of each respective compound until the mice were sacrificed. Tumor burden was monitored using bioluminescent imaging (BLI) at Days 0, 14, and 19 after injection (FIG. 7A).

“Also recorded” adds a separate entry of the source.

In the case of `CC(C)C[C@H](NC(=O)[C@H](Cc1ccccc1)NC(=O)c1cnccn1)B(O)O` [bortezomib], the “TNF-α-induced NF-κB recruitment to the nucleus, single agents” value with NF-κB p65 is recorded as “similarly inhibited”.
Consider “antimiR-155: fully LNA-modified 8-mer seed-targeting antimiR-155 (3′ATTACGAT 5′ (SEQ ID NO:9)) (fully LNA-modified, chemistry not fully specified; listed 3' to 5')”, for which the “CEBPβ protein level in bone marrow and spleen (immunostaining)” value in the data set with miR-155 [1] (mouse, in vivo) is reported as “de-repression”. Moreover, the “MAFB protein level in bone marrow and spleen (immunostaining)” value in the data set on miR-155 [1] (mouse, in vivo) is given as “de-repression”. Further, the “mRNA levels of six miR-155 targets in bone marrow WM CD19+ cells” value in the data set with miR-155 [1] (vs scramble control) is on record as “de-repressed”. Moreover, the “validated miR-155 target mRNAs (CEBPβ, SMAD5, SOCS1)” value in the data set on miR-155 [2] (24 or 48 hours) was “up-regulated; also recorded: upregulated”. The “new miR-155 targets MAFB, SHANK2, SH3PXD2A mRNA” value in the data set with miR-155 [2] (48 hours) is “de-repressed; also recorded: upregulated”. Also, the cell cytotoxicity result in the data set on MEC1 cells [3] and with BCWM1 cells [4] was “no change in cell cytotoxicity” throughout. The “cell cytotoxicity on stromal cells” value in data set [5] is “No effect”. The “mRNA levels of the six miR-155 targets” value with miR-155 [6] and in the data set with miR-155 [13] was “significant increase in the mRNA levels” each time. For the same molecule, the cell proliferation result with MEC1 cells [7] and in the data set on BCWM1 cells [8] was “significant reduction in cell proliferation” throughout. In addition, the “tumor cell proliferation, co-culture with miR-155−/− stromal cells” value with MEC1 cells [9] and with BCWM1 cells [10] was “not significantly” each time. The “tumor cell proliferation, co-culture with wild-type mice stroma” value in the data set with MEC1 cells [9] and in the data set with BCWM1 cells [10] was “decreased tumor cell proliferation” throughout. For the same molecule, the “tumor cell proliferation in co-culture” value in the data set on MEC1 cells [11] and with BCWM1 cells [12] (primary WM bone marrow stromal cells) was “decreased tumor cell proliferation” in each case. Also, the “protective effect of bone marrow stromal cells on WM tumor cells” value in the data set on BCWM1 cells [12] was “overcame the protective effect of bone marrow stromal cells”. The “tumor burden (BLI)” value with mCherry-Luc+-BCWM1 cells (25 mg/kg loading dose, weekly 5 mg/kg, Day 14 and Day 19, vs scramble control) is recorded as “significant reduction in tumor burden; also recorded: significantly decreased tumor burden”. Moreover, the body weight result in the data set with mCherry-Luc+-BCWM1 cells (antimiR-155 vs scramble control group) was “No difference in body weight”.
